Test results: patent publication US20230404969A1, “COMPOSITIONS AND METHOD FOR EFFECTIVE MANAGEMENT OF PERITONITIS” (priority 2022, published 2023)

Test system: Myeloperoxidase (MPO)
Test: Myeloperoxidase in peritoneal exudate (ELISA), chronic zymosan peritonitis
Format: in vivo, mouse
Details: 2 mg/kg, day 36
Experimental: Peritoneal inflammation was induced by Zymosan A (Sigma Chemical) (Masashi et al. Zymosan, but Not Lipopolysaccharide, Triggers Severe and Progressive Peritoneal Injury Accompanied by complement Activation in a Rat Peritonitis Model) was prepared freshly in sterile, 0.9% w/v saline, and 0.5 ml was injected i.p. from day 0 to Day 5. The lymphocyte population in the peripheral blood was determined with a flow cytometer. Cells were phenotyped by flow cytometry with the following primary antibodies: CD4 (FITC) and CD8 (PE). Cells were gated broadly on all live lymphocyte cells, with only debris and multiple cell clusters being excluded. Analysis of mean fluorescence intensity was done and percentage cell population was evaluated. The test drugs were administered for 30 days after the induction of peritonitis. On 36th day the peritoneal cavity was lavaged with 1.5 ml saline, and after a 30-s gentle manual massage, 0.5 ml exudate was retrieved, centrifuged at 3000 g for 3 min, and frozen at […] prior to cytokine and chemotactic-factor assessment.
Circulating toxins can activate neutrophils or stimulate monocytes to release mediators contributing to the development of endotoxic shock. […] The protein concentrations were carried out by means of colorimetric measurement at 450 nm on an ELISA plate reader by interpolation from a standard curve. […]

For `CC1=C(C)C(=O)O[C@@H]([C@@H](C)[C@@]2(O)CC[C@H]3[C@@H]4[C@@H]5O[C@@H]5[C@@]5(O)CC=CC(=O)[C@]5(C)[C@H]4CC[C@@]32C)C1` [Withanone], the “Decrease of expression levels of MPO compared to the Zymosan control” value was “at least 50%”.
